# Test results as given in US20250122218A1, “MODULATORS OF CYSTIC FIBROSIS TRANSMEMBRANE CONDUCTANCE REGULATOR” (Vertex Pharmaceuticals Incorporated, priority 2022, published 2025).
# Molecular target: T1, CFTR in F508del/MF-HBE cells (Homo sapiens, UniProt P13569, DEL508-508)
# T1 construct: human bronchial epithelial (HBE) cells derived from CF subjects heterozygous for F508del and a minimal function CFTR mutation; endogenous in cells; host or cells: primary human bronchial epithelial cells from CF subjects (F508del/MF-HBE)
# T1 sequence (P13569 with tags, fused parts or gaps DEL508-508): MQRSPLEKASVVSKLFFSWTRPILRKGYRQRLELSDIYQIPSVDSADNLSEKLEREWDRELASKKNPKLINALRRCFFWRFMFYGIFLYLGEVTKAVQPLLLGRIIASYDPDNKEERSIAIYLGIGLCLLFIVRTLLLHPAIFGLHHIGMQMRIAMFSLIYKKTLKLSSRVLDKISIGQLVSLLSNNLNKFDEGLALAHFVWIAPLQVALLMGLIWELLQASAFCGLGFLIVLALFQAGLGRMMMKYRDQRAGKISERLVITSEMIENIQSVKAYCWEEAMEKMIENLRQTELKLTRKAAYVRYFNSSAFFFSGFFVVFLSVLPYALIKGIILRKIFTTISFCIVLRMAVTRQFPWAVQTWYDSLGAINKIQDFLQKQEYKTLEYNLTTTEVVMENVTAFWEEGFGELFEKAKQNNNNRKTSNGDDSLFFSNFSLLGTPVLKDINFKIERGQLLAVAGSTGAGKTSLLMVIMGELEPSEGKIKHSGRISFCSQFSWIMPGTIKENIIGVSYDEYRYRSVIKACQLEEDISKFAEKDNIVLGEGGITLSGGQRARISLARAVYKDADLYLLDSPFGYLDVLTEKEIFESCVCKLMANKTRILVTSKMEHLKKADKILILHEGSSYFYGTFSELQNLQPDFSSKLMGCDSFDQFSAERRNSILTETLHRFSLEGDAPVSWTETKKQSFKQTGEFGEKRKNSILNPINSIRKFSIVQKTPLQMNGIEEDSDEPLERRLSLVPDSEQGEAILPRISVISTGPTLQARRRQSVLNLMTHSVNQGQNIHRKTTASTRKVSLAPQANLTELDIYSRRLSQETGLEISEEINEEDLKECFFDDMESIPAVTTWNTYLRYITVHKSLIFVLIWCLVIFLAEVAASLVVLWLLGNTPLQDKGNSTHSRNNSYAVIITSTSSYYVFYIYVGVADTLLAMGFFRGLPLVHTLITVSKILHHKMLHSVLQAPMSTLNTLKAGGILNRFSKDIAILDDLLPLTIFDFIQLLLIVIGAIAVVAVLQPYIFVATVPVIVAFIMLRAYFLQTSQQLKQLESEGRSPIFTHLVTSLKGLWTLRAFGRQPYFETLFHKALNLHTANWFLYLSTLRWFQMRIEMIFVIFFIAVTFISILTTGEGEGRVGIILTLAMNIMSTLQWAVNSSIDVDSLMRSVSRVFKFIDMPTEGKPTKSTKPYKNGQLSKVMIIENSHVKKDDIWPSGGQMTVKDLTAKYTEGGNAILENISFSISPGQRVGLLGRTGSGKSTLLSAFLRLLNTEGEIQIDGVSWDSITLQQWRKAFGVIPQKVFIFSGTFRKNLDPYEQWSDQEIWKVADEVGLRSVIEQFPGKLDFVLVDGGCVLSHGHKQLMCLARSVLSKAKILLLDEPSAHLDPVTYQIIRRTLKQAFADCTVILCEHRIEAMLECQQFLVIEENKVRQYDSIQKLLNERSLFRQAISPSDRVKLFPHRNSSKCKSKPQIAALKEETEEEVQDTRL
# Test: Ussing chamber assay of CFTR-mediated short-circuit currents (identification of potentiator compounds)
# Type: cell-based
# Conditions: potentiator incubated 18-24 hours at 37° C. in combination with 10 μM corrector, in the presence of 20% human serum, CFTR-mediated ISC
# Description: Ussing chamber experiments were performed using human bronchial epithelial (HBE) cells derived from CF subjects heterozygous for F508del and a minimal function CFTR mutation (F508del/MF-HBE) and cultured as previously described (Neuberger T, Burton B, Clark H, Van Goor F; Methods Mol. Biol. 2011:741:39-54). After four days the apical media was removed, and the cells were grown at an air liquid interface for >14 days prior to use.
# To isolate the CFTR-mediated short-circuit (ISC) current, F508del/MF-HBE grown on Costar® Snapwell™ cell culture inserts were mounted in an Ussing chamber and the transepithelial ISC was measured under voltage-clamp recording conditions (Vhold=0 mV) at 37° C. The basolateral solution contained (in mM) 145 NaCl, 0.83 K2HPO4, 3.3 KH2PO4, 1.2 MgCl2, 1.2 CaCl2), 10 Glucose, 10 HEPES (pH adjusted to 7.4 with NaOH) and the apical solution contained (in mM) 145 NaGluconate, 1.2 MgCl2, 1.2 CaCl2), 10 glucose, 10 HEPES (pH adjusted to 7.4 with NaOH) and 30 μM amiloride to block the epithelial sodium channel. Forskolin (20 μM) was added to the apical surface to activate CFTR, followed by apical addition of a CFTR inhibitor cocktail consisting of BPO, GlyH-101 and CFTR inhibitor 172 (each at 20 μM final assay concentration) to specifically isolate CFTR currents. The CFTR-mediated ISC (μA/cm^2) for each condition was determined from the peak forskolin response to the steady-state current following inhibition.
# The activity of the CFTR potentiator compounds on the CFTR-mediated ISC was determined in Ussing chamber studies as described above. The F508del/MF-HBE cell cultures were incubated with the potentiator compounds at a range of concentrations in combination with 10 μM (14S)-8-[3-(2-{dispiro[2.0.2.1]heptan-7-yl}ethoxy)-1H-pyrazol-1-yl]-12,12-dimethyl-2λ^6-thia-3,9,11,18,23-pentaazatetracyclo[17.3.1.111,14.05,10]tetracosa-1(22),5,7,9,19(23),20-hexaene-2,2,4-trione for 18-24 hours at 37° C. and in the presence of 20% human serum. The concentration of potentiator compounds and (14S)-8-[3-(2-{dispiro[2.0.2.1]heptan-7-yl}ethoxy)-1H-pyrazol-1-yl]-12,12-dimethyl-2λ^6-thia-3,9,11,18,23-pentaazatetracyclo[17.3.1.111,14.05,10]tetracosa-1(22),5,7,9,19(23),20-hexaene-2,2,4-trione used during the 18-24 hours incubations was kept constant throughout the Ussing chamber measurement of the CFTR-mediated ISC to ensure compounds were present throughout the entire experiment. The efficacy and potency of the putative F508del potentiators was compared to that of the known potentiator, ivacaftor (N-[2,4-bis(1,1-dimethylethyl)-5-hydroxyphenyl]-1,4-dihydro-4-oxoquinoline-3-carboxamide).
row,EC50 [nM],Compound
1,< 500,"COC1CCCCc2ccc(F)c(c2)C(O)(C(F)(F)F)C2=NN=C(O2)c2nc1c(C(F)(F)F)cc2N (centres unmarked) [Compound 62, 20-Amino-8-fluoro-16-methoxy-6,18-bis(trifluoromethyl)-23-oxa-3,4,21-triazatetracyclo[15.3.1.12,5.17,11]tricosa-1(21),2,4,7(22),8,10,17,19-octaen-6-ol]"
2,< 500,"Nc1cc(C(F)(F)F)c2nc1-c1nnc(o1)[C@@](O)(C(F)(F)F)CCCCCN(Cc1cccc(OC(F)F)c1)C2=O [Compound 254, (6R)-17-amino-12-[[3-(difluoromethoxy)phenyl]methyl]-6-hydroxy-6,15-bis(trifluoromethyl)-19-oxa-3,4,12,18-tetrazatricyclo [12.3.1.12,5] nonadeca-1(18),2,4,14,16-pentaen-13-one]"
3,> 1000,"CC(C)N1CCCCCC(O)(C(F)(F)F)C2=NN=C(O2)c2nc(c(C(F)(F)F)cc2N)C1=O (single isomer, unassigned) [Compound 205, 17-amino-6-hydroxy-12-isopropyl-6,15-bis(trifluoromethyl)-19-oxa-3,4,12,18-tetrazatricyclo [12.3.1.12,5] nonadeca-1(18),2,4,14,16-pentaen-13-one]"
4,< 500,"CC(C)Oc1cccc(CN2CCCCC[C@](O)(C(F)(F)F)C3=NN=C(O3)c3nc(c(C(F)(F)F)cc3N)C2=O)c1 [Compound 172, (6R)-17-amino-6-hydroxy-12-[(3-isopropoxyphenyl)methyl]-6,15-bis (trifluoromethyl)-19-oxa-3,4,12,18-tetrazatricyclo [12.3.1.12,5] nonadeca-1(18),2,4,14,1 6-pentaen-13-one]"
5,< 500,"CC(C)CN1CCCCC(O)(C(F)(F)F)C2=NN=C(O2)c2nc(c(C(F)(F)F)cc2N)C1=O (single isomer, unassigned) [Compound 233, 16-amino-6-hydroxy-11-isobutyl-6,14-bis(trifluoromethyl)-18-oxa-3,4,11,17-tetrazatricyclo [11.3.1.12,5] octadeca-1(17),2,4,13,15-pentaen-12-one]"
6,< 500,"CC(C)Oc1ccc(CN2CCCCC[C@](O)(C(F)(F)F)C3=NN=C(O3)c3nc(c(C(F)(F)F)cc3N)C2=O)cc1 [Compound 143, (6R)-17-amino-6-hydroxy-12-[(4-isopropoxyphenyl)methyl]-6,15-bis (trifluoromethyl)-19-oxa-3,4,12,18-tetrazatricyclo [12.3.1.12,5] nonadeca-1(18),2,4,14,1 6-pentaen-13-one]"
7,< 500,"Nc1cc(C(F)(F)F)c2nc1-c1nnc(o1)[C@@](O)(C(F)(F)F)CCCCCN(Cc1ccc(OC(F)F)c(F)c1)C2=O [Compound 267, (6R)-17-amino-12-[[4-(difluoromethoxy)-3-fluoro-phenyl]methyl]-6-hydroxy-6,15-bis(trifluoromethyl)-19-oxa-3,4,12,18-tetrazatricyclo [12.3.1.12,5] nonadeca-1(18),2,4,14,16-pentaen-13-one]"
8,> 1000,"NC[C@H]1CC[C@H](N2CCCCC[C@](O)(C(F)(F)F)C3=NN=C(O3)c3nc(c(C(F)(F)F)cc3N)C2=O)CC1 [Compound 192, (6R)-17-amino-6-hydroxy-12-[trans-4-(aminomethyl)cyclohexyl]-6,15-bis(trifluoromethyl)-19-oxa-3,4,12,18-tetraazatricyclo[12.3.1.12,5]nonadeca-1(18),2,4,14,16-pentaen-13-one]"
9,< 500,"Nc1cc(C(F)(F)F)c2nc1-c1nnc(o1)[C@@](O)(C(F)(F)F)CCCCCN(Cc1ccc(C3CC3)cc1)C2=O [Compound 217, (6R)-17-amino-12-[(4-cyclopropylphenyl)methyl]-6-hydroxy-6,15-bis(trifluoromethyl)-19-oxa-3,4,12,18-tetrazatricyclo [12.3.1.12,5] nonadeca-1(18),2,4,14,16-pentaen-13-one]"
10,< 500,"Nc1cc(C(F)(F)F)c2nc1-c1nnc(o1)C(O)(C(F)(F)F)c1cc(ccc1F)CCCN(C1CC(F)(F)C1)C2=O (single isomer, unassigned) [Compound 202, 20-amino-15-(3,3-difluorocyclobutyl)-8-fluoro-6-hydroxy-6,18-bis(trifluoromethyl)-23-oxa-3,4,15,21-tetraazatetracyclo [15.3.1.12,5.17,11] tricosa 1(21),2,4,7(22),8,10, 17,19-octaen-16-one]"
11,< 500,"Nc1cc(C(F)(F)F)c2nc1-c1nnc(o1)[C@@](O)(C(F)(F)F)CCCC(=O)CCC2(F)F [Compound 42, (6R)-17-Amino-13,13-difluoro-6-hydroxy-6,15-bis(trifluoromethyl)-19-oxa-3,4,18-triazatricyclo[12.3.1.12,5]nonadeca-1(18),2,4,14,16-pentaen-10-one]"
12,< 500,"Nc1cc(C(F)(F)F)c2nc1-c1nnc(o1)[C@@](O)(C(F)(F)F)CCCCCN(Cc1ccc3ccccc3c1)C2=O [Compound 111, (6R)-17-Amino-6-hydroxy-12-(2-naphthylmethyl)-6,15-bis (trifluoromethyl)-19-oxa-3,4,12,18-tetrazatricyclo [12.3.1.12,5] nonadeca-1(18),2,4,14,1 6-pentaen-13-one]"
13,< 500,Nc1cc(C(F)(F)F)c2nc1-c1nnc(o1)[C@@](O)(C(F)(F)F)CCCCCN(Cc1cccc(C34CC(C3)C4)c1)C2=O [Compound 240]
14,< 500,"COc1ccc(CN2CCCCC[C@](O)(C(F)(F)F)C3=NN=C(O3)c3nc(c(C(F)(F)F)cc3N)C2=O)c(F)c1 [Compound 177, (6R)-17-amino-12-[(2-fluoro-4-methoxy-phenyl)methyl]-6-hydroxy-6,15-bis (trifluorom ethyl)-19-oxa-3,4,12,18-tetrazatricyclo [12.3.1.12,5] nonadeca-1(18),2,4,14,1 6-pentaen-13-one]"
15,< 500,"Nc1cc(C(F)(F)F)c2nc1-c1nnc(o1)[C@@](O)(C(F)(F)F)CCCCCN(Cc1ccc(C34CC(C3)C4)cc1)C2=O [Compound 195, (6R)-17-amino-12-[[4-(1-bicyclo[1.1.1]pentanyl)phenyl]methyl]-6-hydroxy-6,15-bis(trifluoromethyl)-19-oxa-3,4,12,18-tetrazatricyclo[12.3.1.12,5]nonadeca-1(18),2,4,14,16-pentaen-13-one]"
16,< 500,"Nc1cc(C(F)(F)F)c2nc1-c1nnc(o1)[C@@](O)(C(F)(F)F)CCCCCN(Cc1ccc(F)c(C3CC3)c1)C2=O [Compound 255, (6R)-17-amino-12-[(3-cyclopropyl-4-fluoro-phenyl)methyl]-6-hydroxy-6,15-bis(trifluoromethyl)-19-oxa-3,4,12,18-tetrazatricyclo [12.3.1.12,5] nonadeca-1(18),2,4,14,16-pentaen-13-one]"
17,< 500,"COc1cc(F)ccc1CN1CCCCC[C@](O)(C(F)(F)F)C2=NN=C(O2)c2nc(c(C(F)(F)F)cc2N)C1=O [Compound 164, (6R)-17-amino-12-[(4-fluoro-2-methoxy-phenyl)methyl]-6-hydroxy-6,15-bis (trifluoromethyl)-19-oxa-3,4,12,18-tetrazatricyclo [12.3.1.12,5] nonadeca-1(18),2,4,14,1 6-pentaen-13-one]"
18,< 500,"Nc1cc(C(F)(F)F)c2nc1-c1nnc(o1)[C@@](O)(C(F)(F)F)CCCCCN(C1CC3(C1)CC(F)(F)C3)C2=O [Compound 95, (6R)-17-Amino-12-(2,2-difluorospiro [3.3]heptan-6-yl)-6-hydroxy-6,15-bis (trifluoromethyl)-19-oxa-3,4,12,18-tetrazatricyclo [12.3.1.12,5] nonadeca-1(18),2,4,14,1 6-pentaen-13-one]"
19,< 500,"Nc1cc(C(F)(F)F)c2nc1-c1nnc(o1)[C@@](O)(C(F)(F)F)CCCCCN(Cc1ccccc1OC(F)(F)F)C2=O [Compound 141, (6R)-17-amino-6-hydroxy-12-[[2-(trifluoromethoxy)phenyl]methyl]-6,15-bis (trifluoromethyl)-19-oxa-3,4,12,18-tetrazatricyclo [12.3.1.12,5] nonadeca-1(18),2,4,14,1 6-pentaen-13-one]"
20,< 500,"17-amino-12-[(3-tert- butylphenyl)methyl]- 6-hydroxy-6,15- bis(trifluoromethyl)- 8,19-dioxa-3,4,12,18- tetrazatricyclo [12.3.1.12,5] nonadeca- 1(18),2,4,14,16- pentaen-13-one [Compound 261]"
